From a melting point compilation (Tetko et al.; mined from patent text by program, amines drawn as free bases though some values may be those of a salt)

Compound	melting point [°C]
COC(=O)c1ccc(-c2nsc3nc4ccccc4n23)cc1	204 to 206
O=C(C(=O)N(CC(F)(F)F)S(=O)(=O)C(F)(F)F)N(CC(F)(F)F)S(=O)(=O)C(F)(F)F	43 to 45
CCc1cc(-n2c(=O)[nH]c3cc(C(F)(F)F)c(Oc4ccccc4)cc32)c(OC)cc1OC	> 240
CCCCCCCCCCCc1[nH]c2ccc(C(=O)OC)cc2c1C=O	162 to 165
Cc1ccnc(C(=O)c2[nH]c3ccc(Cl)cc3c2CC(=O)NCCN)c1	166
O=S(=O)(c1ccccc1)c1n[nH]c2ccccc12	118
O=C(NCP(=O)(O)O)c1ccccc1	171 to 173
O=C(O)c1cc(NC(=O)C(CS)Cc2ccccc2)ccc1N1CCCC1 (stereo not drawn)	196 to 198
COCCCS(=O)(=O)NC(=O)/C=C/c1cc(OCC2CC2)nn1Cc1ccc(C(F)(F)F)cc1Cl	137 to 138
O=C1c2ccccc2C2(c3ccccc3)NCCCCN12 (stereo not drawn)	180 to 181
O=S(=O)(Oc1ccc(OCc2ccc3ccccc3n2)cc1C1(c2ccccc2)CC2CCC1C2)C(F)(F)F (stereo not drawn)	131 to 132
O=C(O)c1cc(S(=O)Cc2ccccc2)c(Cl)cc1Cl (stereo not drawn)	192
CC(C)(C)c1cc(-c2nn(Cc3ccccc3)c3ncccc23)cc(C(C)(C)C)c1O	155 to 157
CCc1cn(C2CCC(CO)O2)c(=O)[nH]c1=O (stereo not drawn)	109 to 113
CCn1cc(C(=O)O)c(=O)c2cc(F)c(N3CCOC(CN(C)C)C3)c(F)c21 (stereo not drawn)	185 to 188
Cc1cccc(-c2c(C(N)=O)n(C)c(=O)c3ncccc23)c1	> 310
CC(C)(C)c1nc(-c2nn(-c3ccc(F)cc3F)c3c2C2CCC3C2)no1 (stereo not drawn)	119 to 121
N#Cc1ccc(-c2ccc(O)c(C(F)(F)F)c2)cc1	201 to 203
CS(=O)(=O)c1ccc(NC(=O)c2ccccc2SSc2ccccc2C(=O)Nc2ccc(S(C)(=O)=O)cc2)cc1	236 to 238
O=C(O)C1Cc2cc3c(=O)c4c(Cl)cccc4oc3c(Cl)c2O1 (stereo not drawn)	291 to 294
CCOC(=O)c1cn(C2CC2)c2cc(C3CCN(C(C)=O)CC3)c(F)cc2c1=O	195 to 201
COC(=O)C(NC(=O)Nc1ccc(C=NO)cc1)C(=O)OC	162
C[C@H](COc1ccccc1)Nc1nc(F)nc2c1ncn2[C@@H]1O[C@H](CO)[C@@H](O)[C@H]1O	148 to 150
Cc1ccc(S(=O)(=O)Nc2cnc(C3OCCO3)cc2C)cc1	155 to 156
O=C(O)CCc1cc(-c2ccc(Cl)cc2)n(-c2ccccc2)n1	138 to 139
N#Cc1nn(-c2c(Cl)cc(C(F)(F)F)cc2Cl)cc1C1C=CCC1 (stereo not drawn)	76 to 80

Compound	melting point [°C]
CCOC(=O)COc1ccc(C(=O)Nc2ccccc2S(=O)(=O)c2ccccc2-c2nnn[nH]2)cc1	162 to 163
COn1cc(C(=O)O)c(=O)c2c3sc(=O)n(C)c3ccc21	> 300
O=C(Nc1cccc2c1C(=O)c1c-2n[nH]c1-c1ccc(N2CCC(N3CCCC3)CC2)cc1)NN1CCOCC1	247
CSc1ccc(N2CCCN(/C(C)=C(/C#N)C(=S)/N=C/N(C)C)CC2)cc1	133 to 136
COC(C)=CC(=O)Nc1cccc(Br)c1	110
COC(=O)N1CCC(c2nn(-c3ccc(F)cc3)c3ccccc23)CC1	95 to 97
CCOC(=O)c1ccc([N+](=O)[O-])cc1CBr	65 to 66
O=C(c1ccc(Cl)cc1Cl)N1CCc2cc(S(=O)(=O)N3CCN(c4cccc(Cl)c4)CC3)ccc21	184
CCOC(=O)CCCc1ccc(Nc2ncc3cc(-c4c(Cl)cccc4Cl)c(=O)n(C)c3n2)cc1	169 to 170
O=C(O)c1cccc(-c2ccc3c(c2)C(c2cc(Cl)ccc2Cl)CC3)c1 (stereo not drawn)	229 to 230
CC(=O)c1cc2c(s1)SCCN(CCCCN1CCN(c3ncccn3)CC1)C2=O	118 to 120
N#Cc1cc2sccc2nc1Cl	222 to 224
Cc1ccc(S(=O)(=O)NCC(Cc2ccccc2)NS(=O)(=O)c2ccc(C)cc2)cc1 (stereo not drawn)	128 to 131
CC(C)n1nc(-c2cnc(N3CCOCC3)nc2-c2ccccc2)ccc1=O	200 to 202
Cc1nc(N)c2nc(CO)n(NC3CCC3)c2c1C	211 to 213
CCO/C=C/C(=O)Nc1cccc(Cl)c1OC	98 to 99
CC(C)(C)COc1c(-c2ccc(S(C)(=O)=O)cc2)cnn(-c2cccc(Cl)c2)c1=O	151 to 153
CCOc1cc(CN2C(=O)c3ccccc3C2=O)c2c(c1)Oc1c(ccc(OCC)c1CO[Si](C)(C)C(C)(C)C)N2CC	158 to 159
CC(CCC(N)=O)C1CC=C2C3=C(CCC21C)C1(C)CCC(O)C(C)(C)C1CC3 (stereo not drawn)	233 to 235
Cc1ccc(C)n1C(C)c1nccc(I)c1F (stereo not drawn)	156 to 158
CCCc1c(OCCCCCOc2ccc(C(C)=O)cc2CCC(=O)O)ccc2c1OCCC2=O	115 to 118
CCCC12COC(c3ccc(Cl)cc3)(CC1=O)OC2	96
CC1=C(C(=O)O)CCc2ccccc21	127
COc1cccc(N(C)c2nc(N)nc3[nH]c4ccccc4c23)c1	245 to 246
O=C(c1ccccc1)c1ccncc1Cl	49 to 51
Cn1c(C(=O)NN)nc2ccccc21	156 to 159

Compound	melting point [°C]
CC(=N)NS(=O)(=O)C=Cc1ccccc1	130 to 134
Cc1cccc(-c2nc(CCOc3ccc(CCCC4OC(=O)NC4=O)cc3)c(C)o2)c1 (stereo not drawn)	149 to 150
CCN(CC)C(=O)n1ccc(S(=O)(=O)c2c(C)cc(Br)cc2C)n1	96 to 100
COc1ccc(CC2CCN(C(=O)C(=O)Nc3ccc4c(c3)CC(=O)N4)CC2)cc1	215 to 217
OCCN1CCN(c2onc3c2CCc2ccccc2-3)CC1	137 to 138
COC(=O)CCCc1cc2cc(Cl)ccc2n1S(=O)(=O)c1cccc2nc(C)sc12	129
CSC1c2ccccc2COc2ccc(C(=O)O)cc21 (stereo not drawn)	198 to 200
CNC(=O)c1sc2cnccc2c1Oc1ccc(COC)cc1	163 to 164
Cc1ccc(NC(=O)c2cccc(C(F)(F)F)c2)cc1Br	153 to 155
COc1cc(NC(=O)C(F)(F)F)cc(OC)c1C(C)=O	172 to 173
O=C1CN=C(c2ccccc2Br)c2cc(F)ccc2N1	194 to 196
COC(=O)Nc1nc2cc(C(N)c3ccccc3)ccc2[nH]1 (stereo not drawn)	> 232
Nc1c(N=O)c(=O)n(CC2CCC2)c(=O)n1CC1CCC1	251 to 252
CNC(=O)Nc1scc(C(C)(C)C)c1C#N	212 to 214
Cc1cccc(C(=O)NC2CN3CCC2CC3)c1C (racemic)	160 to 161
Nc1cccc2c1OCCO2	134 to 135
CCN1CCN([C@](O)(CNC(=O)c2ccc(OCc3cc(C)nc4ccccc34)cc2)C(N)=O)CC1	184
CC(C)Cc1nn(C)c(=O)c2c(SCCCO)c(Cc3ccccc3)sc12	60 to 65
Cc1ccc(Br)c(C)c1C(=O)O	121
CC1=C(/C=C/C(C)=C/C=C/C(C)=C\C(=O)O)C(C)(C)C(O)CC1 (stereo not drawn)	152 to 154
CSC(=NC(=O)OC(C)(C)C)NNC(=O)NC(=O)OCc1ccccc1	120 to 123
Cc1c(NC(=O)CC(C)(C)C)cc2c(c1C)OC(C)(C)C2c1ccc(C(C)C)cc1 (stereo not drawn)	172 to 173
CCC(=NO)c1cc(Br)c(O)c(CN)c1	174 to 175
CS(=O)(=O)c1cc(C(=O)O)cc(NCc2ccco2)c1Cl	216
O=C1c2c(Cl)cccc2-n2c1nc1ccccc1c2=O	294 to 296
COc1nc(C(F)(F)C(F)(F)F)cc(=O)n1-c1cc(C(=O)OC(C)C)c(Cl)cc1F	82 to 84

Compound	melting point [°C]
CNC(=O)CN(c1ccc(Cl)cc1N(C)c1ccccc1)S(=O)(=O)c1ccc(OC)c(OC)c1	149
CC(C)Cn1c(CNC(=O)OC(C)(C)C)c(-c2cccs2)c2cc(O)ccc2c1=O	216 to 217
C=CCOc1ccc(C(=O)C=Cc2cc(OC)cc(OC)c2C)cc1	123 to 124
O=[N+]([O-])CS(=O)(=O)c1ccccc1Br	74 to 76
Cc1ccc2c(Br)c(Cl)cc([N+](=O)[O-])c2n1	141 to 142
CCOCCOc1ccc(CN/C=C2\C(=O)NC(=O)c3ccc(Br)cc32)cc1O	179 to 180
O=c1oc2ccccc2c2c1CN(CCN1CC3CCCC(C3)C1)CC2	129 to 130
O=C1CCCC(O)=C1NC(=O)C1CC1	82
CSc1cc(=O)c2occc2s1	149 to 150
CC1=Nc2ccccc2C1(C)CCCCCC(=O)O (stereo not drawn)	115 to 118
Clc1cccc2c(CN3CC=C(c4ccc5[nH]ccc5c4)CC3)n[nH]c12	164 to 167
O=S(=O)(O)NCCC(F)(F)F	> 250
CC(CCc1ccc(CC(=O)O)cc1)CC(=O)O (stereo not drawn)	100 to 102
Cc1c(Cl)cccc1N=Cc1ccccc1O	95 to 97
CN1C(=O)CC[C@]2(C)c3ccc(-c4ccc([N+](=O)[O-])cc4C(F)(F)F)cc3CC[C@@H]12	128 to 130
Cc1cc(C(F)(F)F)nc(-c2ccc(O)cc2)n1	131 to 132
Cn1c2ccccc2c2cc(C=O)c3ccccc3c21	188 to 192
CCCOc1ccccc1-c1nc2c(C(=O)O)cccc2c(=O)[nH]1	195 to 197
COc1ccc(C(=O)Nc2ccccc2)cc1NS(=O)(=O)c1cccc2ccccc12	212 to 213
O=C1CCC(N2Cc3c(OCc4cc5cc(N6CCCCC6)ccc5o4)cccc3C2=O)C(=O)N1 (stereo not drawn)	242 to 244
Cc1ccc2c(c1)N=C(N1CCN(C)CC1)c1cccc3c1N2CC3	160 to 162
COC=CC=C(C#N)C#N	74 to 76
O=C(O)Cc1cccc2c(-c3ccc(C(F)(F)F)cc3)nccc12	228 to 230
C=CCOc1cc(C(=O)O)cc(N)c1C(=O)c1ccccc1	206 to 208
CC12CCC(C1)C(C)(C)C2(S)CC#N (stereo not drawn)	170 to 171
